Consider 10 compounds from patent US9550796B2, “Pyrrolopyrrolone derivatives and their use as BET inhibitors” (NOVARTIS AG, priority 2013, dated 2017).

The target of one test is BRD4 (Homo sapiens (Human), UniProt O60885). In words: TR-FRET in-vitro binding assay for BRD4. To be noted: 45 nM His-Brd4(44-477), acetyl-histone H4 (AcK 5, 8, 12, 16) peptide. In a few lines: (§1)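 TR-FRET binding read after 35 min incubation at 30° C. Compounds dispensed from 90% DMSO solutions and tested at 8 concentrations in a 13.55 μL total reaction volume.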
The target of the next test is BRD2 (Homo sapiens (Human), UniProt P25440). In words: TR-FRET in-vitro binding assay for BRD2. To be noted: 45 nM His-Brd2(60-472), acetyl-histone H4 (AcK 5, 8, 12, 16) peptide. On the procedure:
TR-FRET In-Vitro Binding Assays for BRD2, BRD3, and BRD4: All assays were performed in 384-well microtiter plates. […] Liquid handling and incubation steps were done on an Innovadyne Nanodrop Express equipped with a robotic arm (Thermo CatX, Perkin Elmer/Caliper Twister II) and an incubator (Liconic STX40, Thermo Cytomat 2C450). The assay plates were prepared by addition of 50 nl per well of compound solution in 90% DMSO HummingBird nanodispenser (Zinsser Analytic). […] Reactions were incubated at 30° C. for 35 minutes. […] After 35 minutes incubation at 30° C., plates were measured in a Perkin Elmer EnVision multilabel reader. […] The stock solutions were stored at […] if not used immediately. For the test procedure the vials were defrosted and identified by a scanner whereby a working sheet was generated that guided the subsequent working steps. Compound dilutions were made in 96 well plates. This format enabled the assay of maximally […] at 8 concentrations (single points) including 4 reference compounds, if desired (known BET inhibitors from the prior art, for this and other assays of the type disclosed herein). The dilution protocol included the production of “pre-dilution plates”, “master plates” and “assay plates”. Polypropylene 96-well plates were used as pre-dilution plates. […] All dilution steps were done on a HamiltonSTAR robot. […] Identical “assay plates” were then prepared by pipetting 50 nL each of compound dilutions of the “master plates” into 384-well “assay plates” by means of a HummingBird 384-channel dispenser. These plates were used directly for the assay which was performed in a total volume of 13.55 μL.
For orientation: TR-FRET usually uses a lanthanide donor and a delayed reading to cut background.

The target of another test is BRD3 (Homo sapiens (Human), UniProt Q15059). Kind of test: TR-FRET in-vitro binding assay for BRD3. To be noted: 45 nM His-Brd3(20-477), acetyl-histone H4 (AcK 5, 8, 12, 16) peptide. A digest of the protocol: as §1
Chain of BRD3 (Q15059 20-477): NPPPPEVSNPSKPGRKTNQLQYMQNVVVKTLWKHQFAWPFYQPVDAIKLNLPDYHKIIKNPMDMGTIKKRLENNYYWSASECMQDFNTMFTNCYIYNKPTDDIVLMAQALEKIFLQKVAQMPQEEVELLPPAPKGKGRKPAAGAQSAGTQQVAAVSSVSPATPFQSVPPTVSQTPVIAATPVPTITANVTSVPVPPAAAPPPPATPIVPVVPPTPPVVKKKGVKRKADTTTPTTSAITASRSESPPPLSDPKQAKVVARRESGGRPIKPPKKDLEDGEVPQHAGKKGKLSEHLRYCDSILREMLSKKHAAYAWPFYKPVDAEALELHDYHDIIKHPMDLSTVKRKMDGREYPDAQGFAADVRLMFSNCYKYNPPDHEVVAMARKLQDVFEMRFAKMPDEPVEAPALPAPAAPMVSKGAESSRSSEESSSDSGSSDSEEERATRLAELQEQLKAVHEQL
For a further test, the target named is CREBBP (Homo sapiens (Human), UniProt Q92793). Kind of test: AlphaScreen in-vitro binding assay for CREBBP. The following applies: 324 nM His-CREBBP (1081-1197), acetyl-histone H4 (AcK 5, 8, 12) peptide. A digest of the protocol: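 IC50 values were derived by non-linear regression of percent inhibition across 8 compound concentrations. Protein was His-tagged CREBBP bromodomain (1081-1197), peptide acetyl-histone H4 (AcK 5, 8, 12), in HEPES pH 7.5 buffer. Read-out was AlphaScreen with Ni-chelate acceptor and streptavidin donor beads, 35 min at 30° C then 60 min at RT.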
Chain of CREBBP (Q92793 1081-1197): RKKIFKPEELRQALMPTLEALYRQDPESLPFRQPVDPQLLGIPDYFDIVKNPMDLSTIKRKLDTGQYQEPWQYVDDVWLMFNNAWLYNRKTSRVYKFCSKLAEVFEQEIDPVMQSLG
(Alpha assays give light when donor and acceptor beads are brought close together.)

The test system of the next test is MV-4-11. In words: Cell growth inhibition assay (CellTiter-Glo), MV-4-11. Format: cell-based, human. To be noted: MV-4-11 cells, 4 days; for GI50: Homo sapiens, MV4-11, 96 h, half-maximal growth inhibition; for MV-4-11 TGI: total growth inhibition. In a few lines: (§2)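 Seed cells in their own media; add compound as 3-fold dilutions from 10 μM (0.1% DMSO final). Incubate 4 days at 37 °C, 5% CO2, then add CTG and read luminescence. Subtract no-cell background, correct to a day 0 plate, and fit IC50 and TGI.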
In general terms: In ATP-based viability assays light output follows the ATP content of the culture.

Another test deals with THP-1. Kind of test: Cell growth inhibition assay (CellTiter-Glo), THP-1. Type of test: cell-based, human. To be noted: THP-1 cells, 4 days; for GI50: Homo sapiens, 96 h, half-maximal growth inhibition; for THP-1 TGI: total growth inhibition. A digest of the protocol:
as §2

The subject of another test is K-562. Kind of test: Cell growth inhibition assay (CellTiter-Glo), K-562. Format: cell-based, human. To be noted: K-562 cells, 4 days; for GI50: Homo sapiens, K562, 96 h, half-maximal growth inhibition; for K-562 TGI: total growth inhibition. A digest of the protocol:
as §2

pIC50: −log10 of the molar value.

Chain of BRD2 (P25440 60-472): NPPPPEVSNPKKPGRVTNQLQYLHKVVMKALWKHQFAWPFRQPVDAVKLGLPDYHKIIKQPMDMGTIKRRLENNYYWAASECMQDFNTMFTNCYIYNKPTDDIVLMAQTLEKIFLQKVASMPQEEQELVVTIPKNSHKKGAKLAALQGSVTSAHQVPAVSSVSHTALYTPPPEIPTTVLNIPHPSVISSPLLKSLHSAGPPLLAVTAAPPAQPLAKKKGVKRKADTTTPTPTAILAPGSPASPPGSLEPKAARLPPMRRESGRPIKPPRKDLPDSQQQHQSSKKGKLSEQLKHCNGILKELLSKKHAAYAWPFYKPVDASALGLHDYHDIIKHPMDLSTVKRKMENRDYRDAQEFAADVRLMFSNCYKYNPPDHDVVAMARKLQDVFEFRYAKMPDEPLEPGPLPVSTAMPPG

One may read the pIC50 as the IC50 on a negative log10 scale, so that one unit is a factor of ten. A high value points to a low IC50. The GI50 is the concentration giving 50% growth inhibition. Read a high GI50 as lower sensitivity of the cells. For `Cc1cc(N2C(=O)c3cc(-c4cccn(C)c4=O)n(C)c3C2c2ccc(Cl)cc2)cn(C)c1=O` (centres unmarked) [Example 47, 6-(4-chlorophenyl)-5-(1,5-dimethyl-6-oxo-1,6-dihydropyridin-3-yl)-1-methyl-2-(1-methyl-2-oxo-1,2-dihydropyridin-3-yl)-5,6-dihydropyrrolo[3,4-b]pyrrol-4(1H)-one], the pIC50 at BRD4 is 6.85; on BRD2 it was 6.96; at BRD3, 7.09; at CREBBP it was 6.16. The 50% growth inhibitory concentration (GI50) in the test with MV-4-11 came to 98.4 nM; in the test on THP-1, 195 nM; with K-562, 698 nM. Besides, in the test with MV-4-11, the “MV-4-11 TGI” value was determined as 0.156 µM. The “THP-1 TGI” value in the test on THP-1 came out at 0.351 µM. Moreover, the “K-562 TGI” value with K-562 was greater than 10 µM.
For the compound `Cn1ccc2c1C(c1ccc(Cl)c(F)c1)N(c1cc(Cl)c(=O)n(C)c1)C2=O` (centres unmarked) [Example 90, 5-(5-chloro-1-methyl-6-oxo-1,6-dihydropyridin-3-yl)-6-(4-chloro-3-fluorophenyl)-1-methyl-5,6-dihydropyrrolo[3,4-b]pyrrol-4(1H)-one], the pIC50 is 6.57 at BRD4, 6.58 at BRD2, 6.71 on BRD3 and 5.84 at CREBBP. Moreover, the values for the GI50 in the test on MV-4-11, in the test with THP-1 and with K-562 were 222 nM, 218 nM and 618 nM, respectively. The “MV-4-11 TGI” value in the test with MV-4-11 was found to be 0.4075 µM. Further, the “THP-1 TGI” value in the test with THP-1 was 0.4465 µM. Moreover, in the test with K-562, the “K-562 TGI” value was greater than 10 µM.
For the compound `COc1ncc(-c2cc3c(n2C)C(c2ccc(Cl)cc2)N(c2cc(Cl)c(=O)n(C)c2)C3=O)cn1` (centres unmarked) [Example 40, 5-(5-chloro-1-methyl-6-oxo-1,6-dihydropyridin-3-yl)-6-(4-chlorophenyl)-2-(2-methoxypyrimidin-5-yl)-1-methyl-5,6-dihydropyrrolo[3,4-b]pyrrol-4(1H)-one], the pIC50 on BRD4 was 7.11; at BRD2 it was 7.14; on BRD3, 7.27; at CREBBP, 6.44. The GI50 in the test on MV-4-11 was 83.9 nM; in the test with THP-1 it was 91.9 nM; in the test with K-562 it was 326 nM. Moreover, in the test on MV-4-11, the “MV-4-11 TGI” value amounted to 0.127 µM. The “THP-1 TGI” value with THP-1 was 0.137 µM. Moreover, the “K-562 TGI” value with K-562 is greater than 10 µM.
`Cc1cc(N2C(=O)c3ccn(C)c3C2c2ccc(C#N)cc2)cn(C)c1=O` (centres unmarked) [Example 83, 4-(5-(1,5-dimethyl-6-oxo-1,6-dihydropyridin-3-yl)-1-methyl-4-oxo-1,4,5,6-tetrahydropyrrolo[3,4-b]pyrrol-6-yl)benzonitrile]: the pIC50 at BRD4 is 6.49; on BRD2, 6.56; on BRD3 it was 6.70; on CREBBP, 5.15. Besides, the GI50 came to 326 nM in the test with MV-4-11, 634 nM with THP-1 and 1130 nM in the test with K-562. Besides, in the test on MV-4-11, the “MV-4-11 TGI” value is 0.636 µM. In the test on THP-1, the “THP-1 TGI” value was found to be 1.27 µM. Besides, in the test with K-562, the “K-562 TGI” value was greater than 10 µM.
At BRD2, `CC(=O)Nc1cn(C)c2c1C(=O)N(c1cc(C)c3nnc(C)n3c1)C2c1ccc(Cl)cc1` (centres unmarked) [Example 103, N-(6-(4-chlorophenyl)-5-(3,8-dimethyl-[1,2,4]triazolo[4,3-a]pyridin-6-yl)-1-methyl-4-oxo-1,4,5,6-tetrahydropyrrolo[3,4-b]pyrrol-3-yl)acetamide] gave a pIC50 of 7.51. Also, at CREBBP, the pIC50 is 5.28. In the test on MV-4-11, the GI50 worked out at 19.9 nM and the “MV-4-11 TGI” value was determined as 0.0526 µM. Also, in the test on THP-1, the GI50 was determined as 45 nM and the “THP-1 TGI” value came to 0.119 µM. For the same compound, in the test on K-562, the GI50 came out at 241 nM and the “K-562 TGI” value was greater than 10 µM.
`COc1ncccc1-c1cc2c([nH]1)C(c1ccc(Cl)cc1)N(c1cc(C)c3nnc(C)n3c1)C2=O` (centres unmarked) [Example 27, 6-(4-chlorophenyl)-5-(3,8-dimethyl-[1,2,4]triazolo[4,3-a]pyridin-6-yl)-2-(2-methoxypyridin-3-yl)-5,6-dihydropyrrolo[3,4-b]pyrrol-4(1H)-one]: the values for the pIC50 at BRD4, on BRD2 and on BRD3 were 7.77, 7.43 and 7.68, respectively. Further, the results for the GI50 in the test on MV-4-11, in the test on THP-1 and with K-562 were 22.5 nM, 34.4 nM and 108 nM, respectively. For the same compound, in the test on MV-4-11, the “MV-4-11 TGI” value was determined as 0.0377 µM. The “THP-1 TGI” value with THP-1 amounted to 0.088 µM. In the test with K-562, the “K-562 TGI” value is greater than 10 µM.
In the case of `Cn1cc(-c2cc3c(n2C2CC2)C(c2ccc(Cl)cc2)N(c2cc(Cl)c(=O)n(C)c2)C3=O)ccc1=O` (centres unmarked) [Example 66, 5-(5-chloro-1-methyl-6-oxo-1,6-dihydropyridin-3-yl)-6-(4-chlorophenyl)-1-cyclopropyl-2-(1-methyl-6-oxo-1,6-dihydropyridin-3-yl)-5,6-dihydropyrrolo[3,4-b]pyrrol-4(1H)-one], the negative-log IC50 (pIC50) on BRD2 is 7.28; on CREBBP, 6.62. Besides, the GI50 in the test on MV-4-11 was determined as 43.9 nM; in the test on THP-1, 76.4 nM; with K-562, 250 nM. In addition, in the test on MV-4-11, the “MV-4-11 TGI” value was determined as 0.08745 µM. The “THP-1 TGI” value with THP-1 worked out at 0.135 µM. The “K-562 TGI” value with K-562 is greater than 10 µM.
As for `Cc1cc(N2C(=O)c3cc(-c4cccc(=O)n4C)n(C)c3C2c2ccc(Cl)cc2)cn(C)c1=O` (centres unmarked) [Example 48, 6-(4-chlorophenyl)-5-(1,5-dimethyl-6-oxo-1,6-dihydropyridin-3-yl)-1-methyl-2-(1-methyl-6-oxo-1,6-dihydropyridin-2-yl)-5,6-dihydropyrrolo[3,4-b]pyrrol-4(1H)-one], the pIC50 was 6.96 at BRD4, 7.04 at BRD2 and 7.12 on BRD3. Also, the GI50 in the test with MV-4-11 came out at 150 nM; in the test with THP-1 it was 711 nM; in the test with K-562, 1680 nM. In addition, the “MV-4-11 TGI” value in the test with MV-4-11 came out at 0.27 µM. Moreover, in the test on THP-1, the “THP-1 TGI” value was 1.16 µM. Further, in the test with K-562, the “K-562 TGI” value is greater than 10 µM.
With `COc1ccc(C2c3c(ccn3C)C(=O)N2c2cc(Cl)c(=O)n(C)c2)cc1` (centres unmarked) [Example 92, 5-(5-chloro-1-methyl-6-oxo-1,6-dihydropyridin-3-yl)-6-(4-methoxyphenyl)-1-methyl-5,6-dihydropyrrolo[3,4-b]pyrrol-4(1H)-one], the values for the pIC50 at BRD4, on BRD2 and at BRD3 were 6.05, 6.07 and 6.16, respectively. The results for the GI50 in the test with MV-4-11, with THP-1 and in the test with K-562 were 655 nM, 680 nM and 2870 nM, respectively. Also, in the test on MV-4-11, the “MV-4-11 TGI” value worked out at 1.495 µM. The “THP-1 TGI” value with THP-1 came to 2.405 µM. In addition, the “K-562 TGI” value in the test with K-562 was greater than 10 µM.
`COc1ccc(-c2cc3c(n2C)C(c2ccc(Cl)cc2)N(c2cc(C)c(=O)n(C)c2)C3=O)cn1` (centres unmarked) [Example 58, 6-(4-chlorophenyl)-5-(1,5-dimethyl-6-oxo-1,6-dihydropyridin-3-yl)-2-(6-methoxypyridin-3-yl)-1-methyl-5,6-dihydropyrrolo[3,4-b]pyrrol-4(1H)-one]: the pIC50 was 7.38 at BRD4, 7.40 at BRD2 and 7.47 on BRD3. In addition, the GI50 in the test on MV-4-11 stood at 18.1 nM; in the test on THP-1, 33.2 nM; with K-562 it was 133 nM. Besides, the “MV-4-11 TGI” value in the test with MV-4-11 was determined as 0.0338 µM. For the same compound, the “THP-1 TGI” value in the test on THP-1 was 0.0704 µM. Further, the “K-562 TGI” value in the test with K-562 was greater than 10 µM.
